In patent US20220023258A1, “METHODS OF TREATING CONDITIONS RELATED TO THE S1P1 RECEPTOR” (Arena Pharmaceuticals, Inc., priority 2018, published 2022):
Entries after “also recorded” stand apart in the source; their conditions may differ. Counter-ions that a name gives are not always drawn.

What was measured:
[1] = system: patients with ulcerative colitis; test: Dose-ranging study in ulcerative colitis: Mayo scores, endoscopic improvement, remission; type: in vivo, human; conditions: for improvement in 2-component Mayo Score relative to placebo / improvement in Total Mayo Score relative to placebo: Week 12; for proportion of patients achieving clinical remission, defined by the 3-component Mayo Score / improvement in 3-component Partial Mayo Score relative to placebo / patients who achieved endoscopic improvement: week 12
Source text: The treatment formulation was composed of immediate-release, hard gelatin capsules containing L-arginine salt of Compound 1. The placebo was composed of hard gelatin capsules containing microcrystalline cellulose. […] The primary objective of this proof-of-concept study was to determine the effect of treatment with the L-arginine salt of Compound 1 in changing 3-component Mayo Clinic score (score ranging from 0 to 9, including stool frequency, rectal bleeding and findings on endoscopy) at 12 weeks. […] ANCOVA model, adjusted for current oral corticosteroid use, prior exposure to TNF-alpha antagonists, and baseline value, was used to estimate changes in Mayo Clinic Score. Mantel-Haenszel method (estimated treatment difference by adjusting current oral corticosteroid use and prior exposure to TNF-alpha antagonists) used to estimate proportion difference for dichotomous parameters. Missing individual Mayo subscores impacting efficacy measures were imputed using multiple imputation methodology with observed case analysis for sensitivity. […] Hierarchical closed testing procedure for primary and secondary endpoints at 0.05 alpha level was used.

[2] = system: patients with ulcerative colitis; test: Dose-ranging study in ulcerative colitis: safety; conditions: for serious adverse events (SAEs): placebo 11.1%;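 on all read-outs here: Double-blind randomized parallel-group trial versus placebo, with the study drug given orally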
Protocol: Patients were instructed to take their capsule on an empty stomach (overnight fast of approximately 8 hours) and to avoid eating for approximately 1 hour after dosing.

O=C(O)C[C@H]1CCc2c1[nH]c1ccc(OCc3ccc(C4CCCC4)c(C(F)(F)F)c3)cc21 [L-arginine salt of Compound 1]
improvement in 2-component Mayo Score relative to placebo ([1]; 1 mg q.d., p=0.086): 0.39 | improvement in Total Mayo Score relative to placebo ([1]; 1 mg q.d., p=0.128): 0.60 | proportion of patients achieving clinical remission, defined by the 3-component Mayo Score ([1]; 1 mg q.d., p=0.136): 16.0% | improvement in 3-component Partial Mayo Score relative to placebo ([1]; 1 mg q.d., p=0.146): 0.43 | patients who achieved endoscopic improvement ([1]; 1 mg q.d., p=0.306): 22.5% | Remission defined by the 4-component Total Mayo Score ([1]; 1 mg q.d., p=0.077): 15.4% | improvement in Total Mayo Score relative to placebo ([1]; 2 mg q.d., p=0.010): 1.27 | proportion of patients achieving clinical remission, defined by the 3-component Mayo Score ([1]; 2 mg q.d., p<0.001 vs placebo 8.1%): 33.0% | patients who achieved endoscopic improvement ([1]; 2 mg q.d., p=0.003 vs placebo 17.8%): 41.8% | improvement in 3-component Partial Mayo Score relative to placebo ([1]; 2 mg q.d., p=0.009): 0.99 | improvement in 2-component Mayo Score relative to placebo ([1]; dose not printed in sentence (high dose), p=0.002): 0.84 | Remission defined by the 4-component Total Mayo Score ([1]; dose not printed in sentence (high dose), p=0.004 vs placebo 6.0%): 24.5% | % of Patients with Serious TEAE ([2]; 1 mg (n = 52)): (5.8) % | % of Patients with TEAE Leading to Discontinuation of Study Drug ([2]; 1 mg (n = 52)): (5.8) % | % of Patients with any TEAE ([2]; 1 mg (n = 52)): (59.6) % | Number of Deaths of Any Reason ([2]; 1 mg (n = 52)): 0 | Number of Patients with Serious TEAE ([2]; 1 mg (n = 52)): 3 | Number of Patients with TEAE Leading to Discontinuation of Study Drug ([2]; 1 mg (n = 52)): 3 | Number of Patients with any TEAE ([2]; 1 mg (n = 52)): 31 | discontinuations from study related to bradycardia or AV block ([2]; 1 mg and 2 mg q.d., 12 weeks): no discontinuations from study related to bradycardia or AV block | liver function tests (LFTs) compared to placebo ([2]; 1 mg and 2 mg q.d., 12 weeks): no increases in liver function tests | reports of macular edema or pulmonary function test abnormalities ([2]; 1 mg and 2 mg q.d., 12 weeks): no reports of macular edema or pulmonary function test abnormalities; also recorded: no reports of macular edema; and no reports of abnormal pulmonary function tests | serious adverse events related to heart rate changes or AV block ([2]; 1 mg and 2 mg q.d., 12 weeks): No serious adverse events related to heart rate changes or AV block | severe or life-threatening infection ([2]; 1 mg and 2 mg q.d., 12 weeks): No severe or life-threatening infection occurred | tolerability ([2]; 1 mg and 2 mg q.d., 12 weeks): well tolerated | serious adverse events (SAEs) ([2]; 1 mg q.d.): 5.8% | % of Patients with TEAE Leading to Discontinuation of Study Drug ([2]; 2 mg (n = 50)): (8.0) % | % of Patients with any TEAE ([2]; 2 mg (n = 50)): (56.0) % | Number of Deaths of Any Reason ([2]; 2 mg (n = 50)): 0 | Number of Patients with Serious TEAE ([2]; 2 mg (n = 50)): 0 | Number of Patients with TEAE Leading to Discontinuation of Study Drug ([2]; 2 mg (n = 50)): 4 | Number of Patients with any TEAE ([2]; 2 mg (n = 50)): 28 | serious adverse events (SAEs) ([2]; 2 mg q.d.): 0% | mean change (decrease) in heart rate, hourly ECGs ([2]; Day 1, any time point, both 1 mg and 2 mg groups): < 10 bpm | mean decrease in heart rate from baseline ([2]; after Day 1 through 12 weeks, either dose group (1 mg, 2 mg)): ≤ 6 bpm
